In article PMC10376843, “Discovery of Novel Myristic Acid Derivatives as N-Myristoyltransferase Inhibitors: Design, Synthesis, Analysis, Computational Studies and Antifungal Activity” (Antibiotics, 2023):
Converted amounts (≈) assume the structure as drawn. Like-named read-outs stand apart in the source and are kept apart here.

Tests used:
[1] = biological target: N-Myristoyltransferase (NMT); experiment: in vitro biochemical NMT inhibition assay (fluorescence detection of CoA); conditions: 0.1 nM to 10,000 nM; excitation 380 nm, emission 470 nm
Experimental: The potency of the myristic acid derivatives was determined via an in vitro NMT assay. Coenzyme A (CoA) was detected as a byproduct of an enzymatic reaction. Fluorescence was measured at an excitation wavelength of 380 nm and an emission wavelength of 470 nm. In this assay, the intensity of fluorescence was […], giving a signal (Figure 7).
The NMT protein used in the study was from the supplier Ray Biotech. The assay was performed in 96-well black PP microplates with the myristic acid derivatives in concentrations ranging from 0.1 nM to 10,000 nM. The solutions were prepared in a buffer containing 20 mM of potassium phosphate (pH 7.9–8.0) and 0.5 mM of ethylenediaminetetraacetic acid (EDTA), 0.1% (v/v) Triton X-100, and a final concentration of 2.7% (v/v) dimethyl sulfoxide (DMSO). Fluorescence was measured at an excitation wavelength of 380 nm and an emission wavelength of 470 nm. These readings were obtained on an EnSight Multimode Microplate Reader, and we plotted the response vs. concentration (log nM), ranging from 0.1 nM to 10,000 nM, to obtain the IC50 values using Graph Pad Prism, according to the reported standard procedure.

[2] = system: Candida albicans (ATCC 10231); experiment: antifungal micro-broth dilution assay, C. albicans; type: cell-based; conditions: ATCC10231, 48 h
Experimental: (§1) A microbroth dilution method was used to test the synthesized compounds. In vitro tests for antifungal activity against Candida albicans (C. albicans) and Aspergillus niger (A. niger) were carried out in triplicate at concentrations ranging from 100 μg/mL to 6.25 μg/mL. The percentage cytotoxicity and MIC50 value for each compound were calculated from the observed absorbance measured at 590 nm, and the results are shown in Table 5. Fluconazole was used as a reference drug, and the antifungal activities were expressed as minimum inhibitory concentration (MIC50) values in μg/mL.
(§2) From HIMEDIA M210 Mumbai, India, test fungal strains were acquired. The conventional micro-broth dilution method was used to test the in vitro antifungal activity of the synthesized compounds against the fungi Candida albicans (ATCC 10231) and Aspergillus niger (ATCC 16888) from the American Type Culture Collection. The acquired fungal strains were used in the current experiment after being subcultured in SDB (Sabouraud dextrose broth). The 48 h young cultures were created and kept at 26 °C before the experiment.
(§3) According to the CLSI’s standard M27 recommended methodology, the SDB was treated with the compounds, which were dissolved in DMSO via the serial dilution method in sterile circumstances to achieve the necessary concentration levels. All the cultures that had been exposed to the compounds were serially diluted twice in growth media, inoculated to about 1 × 10^5 CFU/mL and incubated at 26 °C for 48 h. Subsequently, using a UV spectrophotometer, the absorbance at 590 nm of each culture was determined. The formula was used to compute the viability percentage.
(§4) Percentage viability = ([…]) × 100
(§5) The percentage inhibition was calculated using the formula (100 - cell viability) and plotted in the graph to determine the MIC50 value for each compound (Figure 8) and (Figure 9).
(§6) GraphPad Prism 8.0.2 software (San Diego, CA, USA) was used for statistical analysis. The MIC50 value was established via a nonlinear regression analysis.

[3] = system: Aspergillus niger (ATCC 16888); experiment: antifungal micro-broth dilution assay, A. niger; type: cell-based; conditions: read-out: MIC50 A. niger
Experimental: as §1, §2, §3, §4, §5, §6

[4] = ATCC 10231, 26 °C, 100 to 6.25 μg/mL, absorbance 590 nm, read-out: MIC50 C. albicans
[5] = ATCC16888, ATCC 16888, 48 h, 26 °C, 100 to 6.25 μg/mL, absorbance 590 nm

| Structure (SMILES) | IC50 [1] [nM] | IC50 [2, 4] [µg/mL] | IC50 [3, 5] [µg/mL] | IC50 ([2]; read-out: MIC50 C. albicans, ATCC 10231, 26 °C, 100 to 6.25 μg/mL, absorbance 590 nm) [µg/mL] | IC50 ([3]; ATCC16888, 48 h) [µg/mL] |
| --- | --- | --- | --- | --- | --- |
| CCCCCCCCCCCCCC(=O)Nc1ccccc1 [Compound 3p, N-phenyltetradecanamide] | > 1500 | 15 to 22 (≈ 49.4 to 72.5 µM) | 24.8 (≈ 81.6 µM) | – | – |
| CCCCCCCCCCCCCC(=O)N(C)c1ccccc1 [Compound 3o, N-methyl-N-phenyltetradecanamide] | > 1500 | 15 to 22 (≈ 47.2 to 69.3 µM) | 94.2 (≈ 297 µM) | – | – |
| CCCCCCCCCCCCCC(=O)Nc1ccc(OCC)cc1 [Compound 3l, N-(4-ethoxyphenyl) tetradecanamide] | > 1500 | 15 to 22 (≈ 43.2 to 63.3 µM) | 75.9 (≈ 218 µM) | – | – |
| CCCCCCCCCCCCCC(=O)NC1CCCCC1 [Compound 3m, N-cyclohexyltetradecanamide] | 863 | – | – | 15 to 22 (≈ 48.5 to 71.1 µM) | 14.7 (≈ 47.4 µM) |
| CCCCCCCCCCCCCC(=O)N1CCOCC1 [Compound 3n, 1-morpholinotetradeca-1-one] | > 1500 | 27.6 (≈ 92.8 µM) | 31.4 (≈ 106 µM) | – | – |
| CCCCCCCCCCCCCC(=O)N(CC)c1ccccc1 [Compound 3q, N-ethyl-N-phenyltetradecanamide] | > 1500 | 28.4 (≈ 85.7 µM) | 28.5 (≈ 86.1 µM) | – | – |
| CCCCCCCCCCCCCC(=O)Nc1cccc(C)c1 [Compound 3k, N-(m-tolyl) tetradecanamide] | 1290 | 10.8 (≈ 33.9 µM) | 59.6 (≈ 188 µM) | – | – |

More lines, main results first:

| IC50 [1] [nM] | IC50 [2, 4] [µg/mL] | IC50 [3, 5] [µg/mL] | Structure (SMILES) | IC50 ([2]; read-out: MIC50 C. albicans, ATCC 10231, 26 °C, 100 to 6.25 μg/mL, absorbance 590 nm) [µg/mL] | IC50 ([3]; ATCC16888, 48 h) [µg/mL] |
| --- | --- | --- | --- | --- | --- |
| > 1500 | 38.8 (≈ 104 µM) | 34.3 (≈ 92.3 µM) | CCCCCCCCCCCCCC(=O)Nc1ccc(C(F)(F)F)cc1 [Compound 3s, N-(4-(trifluoromethyl)phenyl)tetradecanamide] | – | – |
| 4210 | – | – | CCCCCCCCCCCCCC(=O)O [Myristic acid] | – | – |
| – | 17.8 (≈ 58 µM) | 16.3 (≈ 53.2 µM) | OC(Cn1cncn1)(Cn1cncn1)c1ccc(F)cc1F [FLZ, Fluconazole, reference compound] | – | – |
| 1000 | 12.9 (≈ 40.5 µM) | 17.4 (≈ 54.5 µM) | CCCCCCCCCCCCCC(=O)Nc1ccc(O)cc1 [Compound 3t, N-(4-hydroxyphenyl) tetradecanamide] | – | – |
| > 1500 | 32.4 (≈ 99.8 µM) | 22.1 (≈ 68.3 µM) | CCCCCCCCCCCCCC(=O)Nc1nc(C)cs1 [Compound 3v, N-(4-methylthiazol-2-yl) tetradecanamide] | – | – |
| 1460 | 11.9 (≈ 37 µM) | 15.4 (≈ 48 µM) | CCCCCCCCCCCCCC(=O)Nc1ccc(F)cc1 [Compound 3r, N-(4-fluorophenyl) tetradecanamide] | – | – |
| 835 | 10.6 (≈ 34.9 µM) | 14.4 (≈ 47.2 µM) | CCCCCCCCCCCCCC(=O)Nc1ccccn1 [Compound 3u, N-(pyridine-2-yl) tetradecanamide] | – | – |
